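Following 48 hours of exposure in 96-well plates, responses at five concentrations were used to interpolate endpoints linearly. GI50 marks 50% less growth.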 Calls of active or inactive are those of the source. No stated cut-off is given here; in the data, active = GI50 up to about 1.1 µM and inactive = higher.
Experiments:
Test in all cases: DTP human tumour cell line panel, 48 h
[1] = test system: A498
[2] = test system: MDA-MB-231
[3] = test system: BT-549
[4] = test system: SK-MEL-2
[5] = test system: SK-MEL-5
[6] = test system: MCF7
[7] = test system: Hs-578T
[8] = test system: MDA-N
[9] = test system: HL-60
[10] = test system: NCI-H226
[11] = test system: CAKI-1
[12] = test system: OVCAR-4
[13] = test system: PC-3
[14] = test system: HOP-92
[15] = test system: SF-295
[16] = test system: HT-29
[17] = test system: UACC-257
[18] = test system: HCT-116
[19] = test system: Malme-3M
[20] = test system: SF-268
[21] = test system: SK-OV-3
[22] = test system: NCI-H23
[23] = test system: CCRF-CEM
[24] = test system: EKVX
[25] = test system: ACHN
[26] = test system: HOP-62
[27] = test system: U-251
[28] = test system: TK-10
[29] = test system: HCT-15
[30] = test system: DU-145
[31] = test system: UO-31
[32] = test system: IGROV-1
[33] = test system: NCI-H522
[34] = test system: LOX IMVI
[35] = test system: MDA-MB-435
[36] = test system: SW-620
[37] = test system: 786-0
[38] = test system: RXF 393
[39] = test system: KM12
[40] = test system: NCI/ADR-RES
[41] = test system: SN12C
[42] = test system: SR
[43] = test system: SK-MEL-28
[44] = test system: K562
[45] = test system: HCC 2998
[46] = test system: A549
[47] = test system: MOLT-4
[48] = test system: NCI-H460
[49] = test system: OVCAR-5
[50] = test system: UACC-62
[51] = test system: M14
[52] = test system: RPMI-8226
[53] = test system: COLO 205
[54] = test system: T47D
[55] = test system: SNB-19
[56] = test system: OVCAR-3
[57] = test system: SF-539
[58] = test system: OVCAR-8

Compound: CCOC(=O)c1cc(C(=O)c2ccccc2)n2nc(-c3ccc(Cl)cc3)ccc12
- GI50 [1]: 16.8 µM (inactive)
- GI50 [2]: 36.2 µM (inactive)
- GI50 [3]: 18.1 µM (inactive)
- GI50 [4]: 17.4 µM (inactive)
- GI50 [5]: 17.4 µM (inactive)
- GI50 [6]: 20.9 µM (inactive)
- GI50 [7]: 17.5 µM (inactive)
- GI50 [8]: 48.8 µM (inactive)
- GI50 [9]: > 100 µM (inactive)
- GI50 [10]: 20.4 µM (inactive)
- GI50 [11]: 31.8 µM (inactive)
- GI50 [12]: 16.6 µM (inactive)
- GI50 [13]: 15.5 µM (inactive)
- GI50 [14]: 24.8 µM (inactive)
- GI50 [15]: 20.4 µM (inactive)
- GI50 [16]: 23.7 µM (inactive)
- GI50 [17]: 30.1 µM (inactive)
- GI50 [18]: 44.7 µM (inactive)
- GI50 [19]: 19.5 µM (inactive)
- GI50 [20]: 13.5 µM (inactive)
- GI50 [21]: 17 µM (inactive)
- GI50 [22]: 27 µM (inactive)
- GI50 [23]: > 100 µM (inactive)
- GI50 [24]: 21.8 µM (inactive)
- GI50 [25]: 15 µM (inactive)
- GI50 [26]: 19.5 µM (inactive)
- GI50 [27]: 23.1 µM (inactive)
- GI50 [28]: 19.3 µM (inactive)
- GI50 [29]: 33.9 µM
- GI50 [30]: 27.6 µM (inactive)
- GI50 [31]: 14.1 µM (inactive)
- GI50 [32]: 18.7 µM (inactive)
- GI50 [33]: 18.5 µM (inactive)
- GI50 [34]: 56.4 µM (inactive)
- GI50 [35]: 33.6 µM (inactive)
- GI50 [36]: 93.8 µM (inactive)
- GI50 [37]: 15.2 µM (inactive)
- GI50 [38]: 15.2 µM (inactive)
- GI50 [39]: 20 µM (inactive)
- GI50 [40]: 23.4 µM (inactive)
- GI50 [41]: 25.2 µM (inactive)
- GI50 [42]: 72.6 µM (inactive)
- GI50 [43]: 28.4 µM (inactive)
- GI50 [44]: > 100 µM (inactive)
- GI50 [45]: 23.2 µM (inactive)
- GI50 [46]: 15.4 µM (inactive)
- GI50 [47]: > 100 µM (inactive)
- GI50 [48]: 22.1 µM (inactive)
- GI50 [49]: 23.3 µM (inactive)
- GI50 [50]: 17.3 µM (inactive)
- GI50 [51]: 31.8 µM (inactive)
- GI50 [52]: 91.2 µM (inactive)
- GI50 [53]: 50.7 µM (inactive)
- GI50 [54]: 21.9 µM (inactive)
- GI50 [55]: 16.4 µM (inactive)

Compound: CO/C=C(/C(=O)OC)c1ccccc1[C@H]1C[C@@H]1c1ccc(OC)cc1
- GI50 [1]: 28.1 µM (inactive)
- GI50 [2]: 25.5 µM (inactive)
- GI50 [3]: 17.7 µM (inactive)
- GI50 [4]: 13.2 µM (inactive)
- GI50 [5]: 12.4 µM (inactive)
- GI50 [6]: 32.1 µM (inactive)
- GI50 [7]: 25.9 µM (inactive)
- GI50 [8]: 12.9 µM (inactive)
- GI50 [9]: 25.2 µM (inactive)
- GI50 [10]: 30.2 µM (inactive)
- GI50 [11]: 17.9 µM (inactive)
- GI50 [12]: 8.05 µM (inactive)
- GI50 [13]: 22.1 µM (inactive)
- GI50 [14]: 9.33 µM (inactive)
- GI50 [15]: 17.2 µM (inactive)
- GI50 [16]: 14.9 µM (inactive)
- GI50 [17]: 25.8 µM (inactive)
- GI50 [18]: 16.3 µM (inactive)
- GI50 [19]: 15.6 µM (inactive)
- GI50 [20]: 25.1 µM (inactive)
- GI50 [21]: 17.8 µM (inactive)
- GI50 [22]: 27.9 µM (inactive)
- GI50 [23]: 25.4 µM (inactive)
- GI50 [24]: 14.3 µM (inactive)
- GI50 [25]: 22 µM (inactive)
- GI50 [26]: 33.9 µM (inactive)
- GI50 [27]: 30.8 µM (inactive)
- GI50 [28]: 37.5 µM (inactive)
- GI50 [29]: 19.2 µM
- GI50 [30]: 32.1 µM (inactive)
- GI50 [31]: 26.4 µM (inactive)
- GI50 [32]: 14.3 µM (inactive)
- GI50 [33]: 7.93 µM (inactive)
- GI50 [35]: 7.76 µM (inactive)
- GI50 [37]: 34 µM (inactive)
- GI50 [38]: 49.9 µM (inactive)
- GI50 [39]: 18.4 µM (inactive)
- GI50 [40]: 20.2 µM (inactive)
- GI50 [41]: 32.1 µM (inactive)
- GI50 [56]: 16.3 µM (inactive)
- GI50 [42]: 8.73 µM (inactive)
- GI50 [43]: 18.1 µM (inactive)
- GI50 [44]: 15.8 µM (inactive)
- GI50 [45]: 17.2 µM (inactive)
- GI50 [46]: 20.8 µM (inactive)
- GI50 [57]: 17 µM (inactive)
- GI50 [47]: 17.1 µM (inactive)
- GI50 [48]: 21.9 µM (inactive)
- GI50 [58]: 28.6 µM (inactive)
- GI50 [49]: 41.1 µM (inactive)
- GI50 [50]: 23.1 µM (inactive)
- GI50 [51]: 18.3 µM (inactive)
- GI50 [52]: 18.2 µM (inactive)
- GI50 [53]: 13.1 µM (inactive)
- GI50 [54]: 21.1 µM (inactive)
- GI50 [55]: 53.7 µM (inactive)

— ChEMBL document CHEMBL1201862, “PubChem BioAssay data set” (2004)
